In experiment [1] the test system is conditioned avoidance response. Nature of the experiment: Dog Conditioned Avoidance Response (C.A.R.). The experiment is classed as in vivo. As to conditions: Canis lupus familiaris; dog, po; 5 or more incorrect responses in 50% of animals; 1, 2, and 4 hours; read-out: C.A.R. ED50. As for the experimental part: Dog Conditioned Avoidance Response (C.A.R.):
Results given in: mg/kg po/dog
Dogs are trained to raise a forelimb when presented with a conditioned stimulus (light) in order to avoid an electric shock. Blocks of 10 trials are given to groups of 4 dogs during a pretreatment period and at 1, 2, and 4 hours after oral administration of the test compound. The ED50 values are calculated as the dose causing 50% of the animals to show 5 or more incorrect responses. Blocking of the C.A.R. at non-toxic doses appears to correlate with major tranquilizer activity in man.

In experiment [2] the test system is fear / feeding in approach-avoidance conflict. Nature of the experiment: Rat Conflict (Approach-Avoidance) Test. It is filed as in vivo. As to conditions: rat, po; after 1 or 2 hours; read-out: Conflict MED. As for the experimental part:
Rat Conflict (Approach-Avoidance) Test (Conflict)
Results given in: mg/kg po/rat
Food deprived rats are trained to pass from one compartment to an adjacent one to obtain food. The training consists of 3 exposures to the test situation on day one of the experiment. The rats are given limited (1-2 hr) free access to food in their home cages on day one and are then food deprived for at least 18 hours. On day two of the experiment, the rats are given a control exposure to the test situation followed by a second exposure after one-half to 1 hour in which they are shocked after crossing and eating. Groups of 6-8 rats are then dosed orally with solvent or test compound and then re-exposed to the test situation after 1 or 2 hours.
Compounds showing minor tranquilizer (anxiolytic) activity in man such as diazepam and meprobamate produce an apparent decreased fear in the test animals so that they cross to obtain food despite having received a shock earlier. This effect is dose-related (and the MED is the minimum dose at which this effect is obtained); rats dosed with solvent only consistently show a high level of fear as evidenced by decreased mobility and absence of feeding when placed in the test situation after receiving a shock.

The subject of experiment [3] is locomotor activity. Put plainly: Decreased Locomotor Activity (L.M.A.), mouse. It is filed as in vivo. As to conditions: mouse, po; minimal effective dose; read-out: L.M.A. MED. Here is the method: (§1) Decreased Locomotor Activity (L.M.A.)
(§2) This reaction sign is measured subjectively by observing how an animal behaves when it is removed from an observation cage and placed on a table top. […] The degree of stimulation by the observer needed to produce active locomotion is rated on an arbitrary scale. This ranges from a score of -1 where only a slight touch of the animal's body is required to a -4 where the animal is unresponsive or minimally responsive to the application of a pain stimulus (pressure at the base of the tail). The minimal effective dose (MED) is the lowest oral dose producting an obvious decrease of locomotor activity (with a score of at least -1). Groups of 3 mice are given decreasing oral doses at 0.5 log intervals (300, 100, 30. . .etc.) until no behavioral effects are evident. Decrease of locomotor activity is indicative of general central nervous system depressant activity.

In experiment [4] the test system is eyelid closure (ptosis). Nature of the experiment: Ptosis, rat. It is filed as in vivo. As to conditions: rat, po; passive ptosis; read-out: Ptosis MED. The text has this: Degree of eyelid closure is used as a measure of central nervous system depression. An animal is removed from its observation cage and allowed to remain outside the cage for 30 seconds. At the end of this time a rating of degree of eyelid closure is made on an arbitrary scale.

Experiment [5] deals with catalepsy. Put plainly: Catalepsy, rat. As to conditions: rat, po; read-out: Catalepsy MED. The experiment is classed as in vivo. An excerpt: (§3) The ability of an animal to remain in an abnormal position is used as another indication of central nervous system depressant activity. A test animal is removed from its observation cage and positioned so that its hind legs are on the table top and its front legs rest on the side of the observation cage. If an animal maintains this position for at least 10 seconds, it is considered to be showing cataleptic behavior.

Experiment [6] has as its system locomotor activity. Put plainly: Decreased Locomotor Activity (L.M.A.), rat. The experiment is classed as in vivo. As to conditions: po; minimal effective dose; read-out: L.M.A. MED. As for the experimental part:
as §1, §2

In experiment [7] the test system is catalepsy. Put plainly: Catalepsy, mouse. The experiment is classed as in vivo. As to conditions: mouse, po; read-out: Catalepsy MED.
Excerpt: as §3

Experiment [8] relates to TBZ-induced ptosis. Put plainly: Tetrabenazine Antagonism (T.B.Z.A.), rat. It is filed as in vivo. As to conditions: 1 h; rat, po; TBZ 40 mg/kg s.c. one hour after compound; read-out: T.B.Z.A. ED50. As for the experimental part: (§4) Tetrabenazine Antagonism (T.B.Z.A.)
(§5) The tetrabenazine (TBZ) antagonism test is used to test for potential antidepressant-like activity in rodents. One hour after oral administration of a test compound, a 40 mg/kg dose of TBZ is given subcutaneously. Thirty minutes after TBZ administration, the mice are placed in the center of a circle; the diameter of the circle is twice the body length of the mouse or rat. After 30 seconds, a reading is made of the degree of ptosis and whether the animal has moved out of the circle. Animals that have received only TBZ will show marked ptosis and immobility. Tricyclic antidepressants of the imipramine type will antagonize the ptosis but not the immobility. Antidepressants of the amphetamine or monoamine oxidase inhibitory type will antagonize both the ptosis and immobility induced by TBZ. The ED50 is the dose producing antagonism of TBZ-induced ptosis, but not of TBZ-induced immobility, in 50% of the animals.

The subject of experiment [9] is eyelid closure (ptosis). Nature of the experiment: Ptosis, mouse. It is filed as in vivo. As to conditions: mouse, po; passive ptosis; read-out: Ptosis MED.
Experiment [10] deals with conditioned avoidance response. Nature of the experiment: Conditioned Avoidance Response (C.A.R.), mouse. It is filed as in vivo. As to conditions: mouse, po; block of C.A.R. in 50% of animals; 1, 2, and 4 hours; read-out: C.A.R. ED50. As for the experimental part: (§6) Mouse and Rat Conditioned Avoidance Response (C.A.R.):
(§7) Mice and rats are trained to jump out of a pit onto a ledge to avoid shock when presented with a light and sound conditioned stimulus. The animals are tested 1, 2, and 4 hours after administration of the test compound. Three to four dose levels and groups of 4-8 animals/dose are used. The ED50 is the dose producing a block of the C.A.R. in 50% of the animals. Blocking of the C.A.R. at non-toxic doses appears to correlate with major tranquilizer activity in man.

Experiment [11] deals with conditioned avoidance response. Nature of the experiment: Conditioned Avoidance Response (C.A.R.), rat. The experiment is classed as in vivo. As to conditions: rat, po; block of C.A.R. in 50% of animals; 1, 2, and 4 hours; read-out: C.A.R. ED50. As for the experimental part:
as §6, §7

The subject of experiment [12] is TBZ-induced ptosis. Put plainly: Tetrabenazine Antagonism (T.B.Z.A.), mouse. It is filed as in vivo. As to conditions: 1 h; mouse, po; TBZ 40 mg/kg s.c. one hour after compound; read-out: T.B.Z.A. ED50. As for the experimental part:
as §4, §5

A further experiment has as its system taming. Put plainly: Rhesus Monkey Taming Effects. The experiment is classed as in vivo. As to conditions: Macaca mulatta; rhesus monkey, po; read-out: Taming MED. Here is the method: Rhesus Monkey Taming Effects (Taming):
Results given in: mg/kg po/monkey
Compounds are administered orally to groups of 6 rhesus monkeys. The behavior of the animals is then evaluated by observational means. Taming effects are determined by the ability of the observer to approach and touch the monkey. Compounds with major tranquilizer activity in man can produce a state of passive tameness in the rhesus monkey wherein it can be touched without provoking any of the threatening or aggressive behavior seen in the normal animal. The MED is the minimal oral dose at which some taming effect can be observed.

Experiment [13] deals with phenyl-p-benzoquinone-induced writhing. Nature of the experiment: Phenylquinone Writhing (P.Q.W.). The experiment is classed as in vivo, mouse. As to conditions: po. On the technique in general: In writhing tests, fewer writhes than in controls are read as antinociception.
Where [14] appears, read: 0.5 h, mouse, phenyl-p-benzoquinone 2.5 mg/kg i.p. 30 minutes after compound, read-out: P.Q.W. ED50.

We go through eleven molecules from patent publication US3932650A, “Trans-octahydropyridoindolobenzazepines as central nervous system depressants” (E. I. Du Pont de Nemours & Company, priority 1973, dated 1976).

Where two headings read alike, the source gives them in different places.

Usually ED50 stands for the dose that gives a 50% effect, or the effect in half of the subjects. As to `CCN1CCc2c(c3cccc4c3n2-c2ccccc2CC4)C1` [ethyl hexahydro], the ED50 was more than 30 mg/kg in experiment [1]; more than 100 mg/kg with TBZ-induced ptosis [8]; more than 40 mg/kg in experiment [10]; more than 40 mg/kg in experiment [11]; more than 100 mg/kg in the experiment with TBZ-induced ptosis [12]. In addition, the minimal effective dose is 20 mg/kg in [2]; 30 mg/kg in the experiment with locomotor activity [3]; more than 300 mg/kg with eyelid closure (ptosis) [4]; more than 300 mg/kg in the experiment on catalepsy [5]; 30 mg/kg in the experiment on locomotor activity [6]; more than 300 mg/kg in the experiment with catalepsy [7]. The figures for the minimal effective dose with eyelid closure (ptosis) [9] and in the experiment with taming were 30 mg/kg and more than 20 mg/kg, respectively.
For the molecule `CC(C)CN1CCc2c(c3cccc4c3n2-c2ccccc2CC4)C1` [isobutyl hexahydro], the minimal effective dose in the experiment on locomotor activity [3], in the experiment with catalepsy [7] and in the experiment with eyelid closure (ptosis) [9] was approximately 60 mg/kg throughout.
Consider `c1ccc2c(c1)CCc1cccc3c1N2[C@H]1CCN(C[C@H]2[C@@H]4CCCC[C@@H]42)C[C@H]31` (relative stereo) [Example 7, trans-1,2,3,4,4a,8,9,14a-Octahydro-3-(exo-7-norcarylmethyl)pyrido[4',3':2,3] indolo[1,7-ab][1]benzazepine], for which the minimal effective dose in the experiment on locomotor activity [3] came to 3 mg/kg; with eyelid closure (ptosis) [4], 3 mg/kg; in the experiment with catalepsy [5] it was 300 mg/kg; with locomotor activity [6], 3 mg/kg; with catalepsy [7], 3 mg/kg; in the experiment with eyelid closure (ptosis) [9] it was 3 mg/kg. Further, the ED50 in [13] (setting [14]) amounted to 14 mg/kg.
Turning to `c1ccc(CCN2CC[C@H]3[C@H](C2)c2cccc4c2N3c2ccccc2CC4)cc1` (relative stereo) [phenethyl, trans-1,2,3,4,4a,8,9,14a-octahydro-3-phenethylpyrido[4',3+:2,3]indolo[1,7-ab][1]benzazepine], the ED50 in [13] (setting [14]) came to 4.7 mg/kg.
On to `c1ccc(CN2CCc3c(c4cccc5c4n3-c3ccccc3CC5)C2)cc1` [benzyl hexahydro, 3-benzyl-1,2,3,4,8,9-hexahydropyrido[4',3':2,3]indolo[1,7-ab][1] benzazepine], for which the minimal effective dose with locomotor activity [3] is approximately 200 mg/kg; in the experiment on eyelid closure (ptosis) [4], more than 300 mg/kg; with catalepsy [5], more than 300 mg/kg; in the experiment on locomotor activity [6] it was more than 300 mg/kg; in the experiment on catalepsy [7], more than 300 mg/kg; in the experiment with eyelid closure (ptosis) [9], more than 300 mg/kg.
Take `CN1CCc2c(c3cccc4c3n2-c2ccccc2CC4)C1` [methyl hexahydro, 1,2,3,4,8,9-hexahydro-3-methylpyrido[4',3':2,3]indolo[1,7-ab][1]benzazepine]: the ED50 is more than 30 mg/kg in [1]; more than 100 mg/kg with TBZ-induced ptosis [8]; 20 mg/kg in experiment [10]; 30 mg/kg in experiment [11]; more than 100 mg/kg in the experiment on TBZ-induced ptosis [12]. Also, the minimal effective dose in [2] was 20 mg/kg; with locomotor activity [3] it was 10 mg/kg; in the experiment on eyelid closure (ptosis) [4] it was 30 mg/kg; in the experiment with catalepsy [5], 100 mg/kg; in the experiment on locomotor activity [6], 30 mg/kg; with catalepsy [7] it was 300 mg/kg. Moreover, the minimal effective dose came out at 30 mg/kg in the experiment with eyelid closure (ptosis) [9] and 10 mg/kg in the experiment with taming.
For `Cl.c1ccc2c(c1)CCc1cccc3c1N2[C@@H]1CCN(CC2CCCC2)C[C@@H]31` (relative stereo) [cyclopentylmethyl, trans-3-cyclopentylmethyl1,2,3,4,4a,8,9,14a-octahydropyrido[4',3':2,3]indolo[1,7-ab][1]benzazepine hydrochloride], the ED50 in experiment [13] (setting [14]) came to 2 mg/kg.
As for `c1ccc(CN2CC[C@@H]3[C@@H](C2)c2cccc4c2N3c2ccccc2CC4)cc1` (relative stereo) [Example 6, trans-3-Benzyl-1,2,3,4,4a,8,9,14a-octahydropyrido[4',3':2,3]indolo[1,7-ab][1]benzazepine], the minimal effective dose is 2 mg/kg in the experiment on locomotor activity [3]; 150 mg/kg with eyelid closure (ptosis) [4]; more than 300 mg/kg with catalepsy [5]; 65 mg/kg in the experiment with locomotor activity [6]; 49 mg/kg in the experiment on catalepsy [7]; 13 mg/kg in the experiment on eyelid closure (ptosis) [9]. In experiment [13] (setting [14]), the median effective dose (ED50) amounted to 28 mg/kg.
In the case of `COc1ccc2c3c1O[C@H]1[C@@H](O)C=C[C@H]4[C@@H](C2)N(C)CC[C@@]341` [codeine], the ED50 in [13] (Mus musculus, 0.5 h, read-out: P.Q.W. ED50) is 19 mg/kg.
Consider `CC(=O)Oc1ccccc1C(=O)O` [aspirin], for which the ED50 in experiment [13] (setting [14]) turned out to be 94 mg/kg.
For `COc1ccc2c3c1O[C@H]1[C@@H](O)C=C[C@H]4[C@@H](C2)N(C)CC[C@@]341` [Codeine phosphate], in experiment [13] (Mus musculus, read-out: Analgesic ED50), the ED50 was 19 mg/kg.
